Data published in paper PMC4728661, “Cancer Prevention and Health Benefices of Traditionally Consumed Borago officinalis Plants” (Nutrients, 2016).

Assays:
[1] = tested on: rats; parameters: method as in PMID 16026713; conditions: doses of 2 and 8 mg·kg^−1, brain tissue and peripheral blood; cited from earlier work
[2] = Cytotoxicity: HL-60 growth/viability, Trypan Blue dye exclusion; format: cell-based, human; conditions: human, HL-60 cells (acute promyelocytic leukemia); HL-60, 72 h treatment, Trypan Blue; read-out: IC50 (cytotoxic effect)
Description: The human acute promyelocytic leukemia cell line HL-60 was routinely grown in suspension in RPMI medium (Invitrogen, Madrid, Spain) containing glutamine ([…], Sigma-Aldrich, St. Louis, MO, USA), antibiotics (100IU penicillin mL^−1 and 100 μg streptomycin mL^−1, Sigma-Aldrich) and supplemented with 10% heat-inactivated foetal bovine serum (Linus, Cultek, Madrid, Spain) and placed in an incubator (Shel Lab, Cornelious, OR, USA) with a 5% CO2 humidified atmosphere at 37 °C [36]. HL-60 cells were subcultured every 2–3 days to maintain logarithmic growth and they were allowed to grow for 48 h before use. Cultures were plated at a density of 12.5 × 10^4 cells mL^−1 in 40 mL culture flasks (25 cm^2). Cytotoxic activity was measured as growing inhibition or decreased viability on HL-60 cells following a previous protocol modified by us. […] Cells were counted after 72 h treatment. Tested concentrations were calculated according to those used for in vivo assays to equal the range of tested doses. Untreated cultures were used as negative control. Cell viability was determined by the Trypan Blue dye exclusion test. Cells were stained with an equal volume of Trypan Blue commercial solution (Sigma-Aldrich) and counted using a hemocytometer at room temperature under a light inverted microscope (AE30/31, Motic, Barcelona, Spain). Cytotoxic effect evaluation was determined after each culture incubation period, establishing a growth curve and determining IC50 values by regression analysis of the curves. Viability estimated regressions of leukemia cells are presented as a survival percentage with respect to controls at 72 h growth and plotted as mean viability ± standard error of at least three independent replicas for each treatment and concentration.

[3] = tested on: D. melanogaster; assay: Antigenotoxicity: SMART, combined treatments with H2O2 0.12 M; format: in vivo, Drosophila melanogaster; on Diagnosis, Large Single Spots >2 Cells m = 5: key: + (positive); − (negative); on Diagnosis, Small Single Spots 1–2 Cells m = 2: key: + (positive); − (negative); on Diagnosis, Total Spots m = 2: key: + (positive); − (negative); on Diagnosis, Twin Spots m = 5: key: + (positive); − (negative)
Description: The D. melanogaster system was selected for the determination of the safety of B. officinalis consumption as a well-recognized method to analyze vegetable complex mixtures using SMART [31, 32]. This test was used in order to evaluate the genotoxic and antigenotoxic activity of B. officinalis leaves and petioles as well as their selected bioactive compounds [33]. This activity was measured by direct visualization of the occurrence of recessive mutations in the wing hairs of two different D. melanogaster strains. Flies from experiments carried these visible wing genetic markers: the flare (flr) strain […]) TM3, Bd^s and the multiple wing-hair (mwh) strain […] [35]. The marker flare (flr^3, 3_38.3) produces individual malformed hairs and the marker multiple wing hairs (mwh, 3_0.3) produces multiple hairs per cell. Larvae used in treatments come from two types of crosses: the standard cross with flr^3/TM3, Bd^S females mated to […] and the reciprocal cross. Optimal fertile flies were anesthetized under CO2 narcotisation for cross selection and then placed in new vials for fertilization. After that, hybrid eggs from crossing were collected over an 8 h period and emerged larvae (72 ± 4 h later) were cleaned up for a few seconds in sterile distilled water to remove feeding medium rests. […] Bioactive compound concentrations were chosen on the basis of their known content in B. officinalis species. […] Larvae were fed on these media until pupation (about 48 h). After emergence, resulting adult flies were sacrificed under CO2 narcotisation and stored in a 70% ethanol solution in sterile water. […] For the evaluation of genotoxic effects, the frequencies of spots per fly of each treated series were compared to the concurrent negative control for each class of mutational clone as well as between simple and combined treatments for the same concentration comparisons. […] A multiple-decision procedure was used to categorize results as positive, inconclusive or negative. Inconclusive and positive results were evaluated by the non-parametric U test of Mann, Whitney and Wilcoxon. The inhibition percentage (IP) of genotoxicity was calculated from the total frequencies of spots per wing, following this formula [42]: IP = (genotoxin alone - sample + genotoxin) × 100/(genotoxin alone)(2) Significant differences of IP for each treatment respect to the positive control were analyzed with a Chi-square test.

[4] = tested on: V79 cell line; parameters: method as in doi:10.3389/conf.fgene.2015.01.0004; conditions: dose dependent, concentrations below 2 mM reduce DNA damage; cited from earlier work
[5] = tested on: HL-60 cell; conditions: 0.1 mM in cell medium; cited from earlier work
[6] = tested on: HL-60 cells; parameters: method as in PMID 19067382; conditions: SY in extracts of Elaphomyces granulates, concentrations up to ~31 µg·mL^−1; cited from earlier work
[7] = combined with 0.12 M H2O2, 0.35 mM RO
[8] = combined with 0.12 M H2O2, 0.7 mM RO
[9] = combined with 0.12 M H2O2, 1.39 mM RO
[10] = combined with 0.12 M H2O2, 2.78 mM RO
[11] = combined with 0.12 M H2O2, 0.15 mM SI
[12] = combined with 0.12 M H2O2, 0.29 mM SI
[13] = combined with 0.12 M H2O2, 0.58 mM SI
[14] = combined with 0.12 M H2O2, 1.16 mM SI
[15] = combined with 0.12 M H2O2, 0.16 mM SY
[16] = combined with 0.12 M H2O2, 0.32 mM SY
[17] = combined with 0.12 M H2O2, 0.63 mM SY
[18] = combined with 0.12 M H2O2, 1.26 mM SY

For `O=C(/C=C/c1ccc(O)c(O)c1)O[C@H](Cc1ccc(O)c(O)c1)C(=O)O` [RO, rosmarinic acid], the “Genotoxic effect, comet assay” value [1] is listed as “no genotoxic effect”, the IC50 at 72 h [2] is listed as 70 µM and the “Diagnosis, Small Single Spots 1–2 Cells m = 2” value [3, 7] is listed as “−”. The “Diagnosis, Total Spots m = 2” value [3, 7] was “−”, the “Mutation rate, Large Single Spots >2 Cells m = 5” value [3, 7] was 0 spots/wing and the “Mutation rate, Small Single Spots 1–2 Cells m = 2” value [3, 7] was 0.17 (5) spots/wing. For the same compound, the “Mutation rate, Total Spots m = 2” value [3, 7] was 0.17 (5) spots/wing, the “Mutation rate, Twin Spots m = 5” value [3, 7] was 0 spots/wing and the “Diagnosis, Large Single Spots >2 Cells m = 5” value [3, 8] was “−”. The “Diagnosis, Small Single Spots 1–2 Cells m = 2” value [3, 8] was “−”, the “Diagnosis, Total Spots m = 2” value [3, 8] was “−” and the “Diagnosis, Twin Spots m = 5” value [3, 8] was “−”. The “Mutation rate, Large Single Spots >2 Cells m = 5” value [3, 8] was 0.08 (3) spots/wing, the “Mutation rate, Small Single Spots 1–2 Cells m = 2” value [3, 8] was 0.35 (14) spots/wing and the “Mutation rate, Total Spots m = 2” value [3, 8] was 0.45 (18) spots/wing. For the same compound, the “Mutation rate, Twin Spots m = 5” value [3, 8] was 0.03 (1) spots/wing, the “Diagnosis, Large Single Spots >2 Cells m = 5” value [3, 9] was “−” and the “Diagnosis, Small Single Spots 1–2 Cells m = 2” value [3, 9] was “−”. The “Diagnosis, Total Spots m = 2” value [3, 9] was “−”, the “Mutation rate, Large Single Spots >2 Cells m = 5” value [3, 9] was 0.14 (3) spots/wing and the “Mutation rate, Small Single Spots 1–2 Cells m = 2” value [3, 9] was 0.14 (3) spots/wing. For the same compound, the “Mutation rate, Total Spots m = 2” value [3, 9] was 0.27 (6) spots/wing, the “Mutation rate, Twin Spots m = 5” value [3, 9] was 0 spots/wing and the “Diagnosis, Small Single Spots 1–2 Cells m = 2” value [3, 10] was “−”. The “Diagnosis, Total Spots m = 2” value [3, 10] was “−”, the “Diagnosis, Twin Spots m = 5” value [3, 10] was “−” and the “Mutation rate, Large Single Spots >2 Cells m = 5” value [3, 10] was 0 spots/wing. The “Mutation rate, Small Single Spots 1–2 Cells m = 2” value [3, 10] was 0.21 (11) spots/wing, the “Mutation rate, Total Spots m = 2” value [3, 10] was 0.25 (13) spots/wing and the “Mutation rate, Twin Spots m = 5” value [3, 10] was 0.04 (2) spots/wing.
For `COc1cc(/C=C/C(=O)O)cc(OC)c1O` [SI, sinapic acid], the Genotoxic/antigenotoxic activity [4] is listed as “antigenotoxic”, the “Diagnosis, Small Single Spots 1–2 Cells m = 2” value [3, 11] is listed as “−” and the “Diagnosis, Total Spots m = 2” value [3, 11] is listed as “−”. The “Mutation rate, Large Single Spots >2 Cells m = 5” value [3, 11] was 0 spots/wing, the “Mutation rate, Small Single Spots 1–2 Cells m = 2” value [3, 11] was 0.42 (5) spots/wing and the “Mutation rate, Total Spots m = 2” value [3, 11] was 0.42 (5) spots/wing. For the same compound, the “Mutation rate, Twin Spots m = 5” value [3, 11] was 0 spots/wing, the “Diagnosis, Small Single Spots 1–2 Cells m = 2” value [3, 12] was “−” and the “Diagnosis, Total Spots m = 2” value [3, 12] was “−”. For the same compound, the “Mutation rate, Large Single Spots >2 Cells m = 5” value [3, 12] was 0 spots/wing, the “Mutation rate, Small Single Spots 1–2 Cells m = 2” value [3, 12] was 0.25 (2) spots/wing and the “Mutation rate, Total Spots m = 2” value [3, 12] was 0.25 (2) spots/wing. For the same compound, the “Mutation rate, Twin Spots m = 5” value [3, 12] was 0 spots/wing, the “Diagnosis, Large Single Spots >2 Cells m = 5” value [3, 13] was “−” and the “Diagnosis, Small Single Spots 1–2 Cells m = 2” value [3, 13] was “−”. For the same compound, the “Diagnosis, Total Spots m = 2” value [3, 13] was “−”, the “Diagnosis, Twin Spots m = 5” value [3, 13] was “−” and the “Mutation rate, Large Single Spots >2 Cells m = 5” value [3, 13] was 0.09 (2) spots/wing. The “Mutation rate, Small Single Spots 1–2 Cells m = 2” value [3, 13] was 0.27 (6) spots/wing, the “Mutation rate, Total Spots m = 2” value [3, 13] was 0.41 (9) spots/wing and the “Mutation rate, Twin Spots m = 5” value [3, 13] was 0.05 (1) spots/wing. For the same compound, the “Diagnosis, Large Single Spots >2 Cells m = 5” value [3, 14] was “−”, the “Diagnosis, Small Single Spots 1–2 Cells m = 2” value [3, 14] was “−” and the “Diagnosis, Total Spots m = 2” value [3, 14] was “−”. For the same compound, the “Mutation rate, Large Single Spots >2 Cells m = 5” value [3, 14] was 0.04 (1) spots/wing, the “Mutation rate, Small Single Spots 1–2 Cells m = 2” value [3, 14] was 0.25 (7) spots/wing and the “Mutation rate, Total Spots m = 2” value [3, 14] was 0.29 (8) spots/wing. The “Mutation rate, Twin Spots m = 5” value [3, 14] was 0 spots/wing.
For `COc1cc(C(=O)O)cc(OC)c1O` [SY, syringic acid], the “Apoptosis induction in HL-60” value [5] is given as “did not induce apoptosis”, the “Cytotoxic effect in HL-60” value [6] is given as “no cytotoxic effect” and the “Diagnosis, Small Single Spots 1–2 Cells m = 2” value [3, 15] is given as “−”. For the same compound, the “Diagnosis, Total Spots m = 2” value [3, 15] was “−”, the “Mutation rate, Large Single Spots >2 Cells m = 5” value [3, 15] was 0 spots/wing and the “Mutation rate, Small Single Spots 1–2 Cells m = 2” value [3, 15] was 0.23 (5) spots/wing. The “Mutation rate, Total Spots m = 2” value [3, 15] was 0.23 (5) spots/wing, the “Mutation rate, Twin Spots m = 5” value [3, 15] was 0 spots/wing and the “Diagnosis, Small Single Spots 1–2 Cells m = 2” value [3, 16] was “−”. For the same compound, the “Diagnosis, Total Spots m = 2” value [3, 16] was “−”, the “Mutation rate, Large Single Spots >2 Cells m = 5” value [3, 16] was 0 spots/wing and the “Mutation rate, Small Single Spots 1–2 Cells m = 2” value [3, 16] was 0.30 (3) spots/wing. For the same compound, the “Mutation rate, Total Spots m = 2” value [3, 16] was 0.30 (3) spots/wing, the “Mutation rate, Twin Spots m = 5” value [3, 16] was 0 spots/wing and the “Diagnosis, Small Single Spots 1–2 Cells m = 2” value [3, 17] was “−”. For the same compound, the “Diagnosis, Total Spots m = 2” value [3, 17] was “−”, the “Mutation rate, Large Single Spots >2 Cells m = 5” value [3, 17] was 0 spots/wing and the “Mutation rate, Small Single Spots 1–2 Cells m = 2” value [3, 17] was 0.28 (9) spots/wing. For the same compound, the “Mutation rate, Total Spots m = 2” value [3, 17] was 0.28 (9) spots/wing, the “Mutation rate, Twin Spots m = 5” value [3, 17] was 0 spots/wing and the “Diagnosis, Small Single Spots 1–2 Cells m = 2” value [3, 18] was “−”. For the same compound, the “Diagnosis, Total Spots m = 2” value [3, 18] was “−”, the “Mutation rate, Large Single Spots >2 Cells m = 5” value [3, 18] was 0 spots/wing and the “Mutation rate, Small Single Spots 1–2 Cells m = 2” value [3, 18] was 0.32 (7) spots/wing. The “Mutation rate, Total Spots m = 2” value [3, 18] was 0.32 (7) spots/wing and the “Mutation rate, Twin Spots m = 5” value [3, 18] was 0 spots/wing.
